The values below come from US10981932B2, “Macrocyclic indole derivatives” (Bayer Aktiengesellschaft, priority 2016, dated 2021).

Structures are written as SMILES. Counter-ions that a name gives are not always drawn. Like-named read-outs stand apart in the source and are kept apart here.

For data set [1], the target named is MCL-1 (Homo sapiens, UniProt Q07820). The data set is described as follows: Protein-protein interaction assay MCL-1/Noxa BH3 peptide (MCL-1 assay), TR-FRET. To be noted: MBP-MCL-1 / Noxa BH3-derived peptide, median. In kind it is binding. The method, boiled down:
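MBP-MCL-1 (1 nM final) was preincubated 10 min at 22 °C with compounds (11 concentrations, 0.1 nM–20 μM, duplicates) in Tris pH 7 buffer with NaCl, KF, Tween-20, DTT and BGG. After 1 h at 22 °C in the dark plus overnight at 4 °C, anti-MBP Eu-cryptate/streptavidin-XL665 TR-FRET was read; IC50 came from a 4-parameter fit.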
Background: In TR-FRET formats the signal depends on donor and acceptor labels being close together.

For data set [2], the system named is SUDHL5. Description: Induction of caspase-3/7 activity (Caspase-Glo 3/7), SUDHL5. In kind it is cell-based. As to conditions: caspase-3/7 induction, SUDHL5 cells, 3 h treatment, median. The method in brief:
(§1)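 Caspase-Glo 3/7 luminescence measured after 3 h compound exposure at 37 °C in SUDHL10 and SUDHL5 cells. EC50 values come from background-corrected signals, with curve bottom set to 1 and plateau set to maximal induction by the reference compound.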

Data set [3] relates to SUDHL5. The data set is described as follows: Induction of cytotoxicity (CellTiter-Glo, 5 h), SUDHL5. For orientation: Cellular ATP, detected with luciferase, serves as a proxy for viable cell number.
The test system of data set [4] is SUDHL10. The data set is described as follows: Anti-proliferative effect (CellTiter-Glo, 72 h), SUDHL10. As to conditions: SUDHL10 cells, antiproliferation, 72 h incubation, median, read-out: Antiproli SUDHL10 [M] (median). In kind it is cell-based. The method, boiled down:
(§2)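 CellTiter-Glo luminescence readout of viability, taken on a time-zero plate at day 0 and on treated plates after 72 h incubation at 37 °C in a humidified incubator. Reagent incubation 10 min before reading.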

Data set [5] has as its system SUDHL10. The data set is described as follows: Induction of caspase-3/7 activity (Caspase-Glo 3/7), SUDHL10. Type of data set: cell-based. As to conditions: caspase-3/7 induction, SUDHL10 cells, 3 h treatment, median. The method, boiled down:
as §1

The test system of data set [6] is SUDHL10. Description: Induction of cytotoxicity (CellTiter-Glo, 5 h), SUDHL10.
The test system of data set [7] is A2780. The data set is described as follows: Anti-proliferative effect (CellTiter-Glo, 72 h), A2780. In kind it is cell-based. To be noted: A2780 cells, median, read-out: IC50 antiproliferation assay A2780 [M] (median). The method in brief:
as §2

For data set [8], the system named is SUDHL5. Description: Anti-proliferative effect (CellTiter-Glo, 72 h), SUDHL5. Type of data set: cell-based. As to conditions: SUDHL5 cells, antiproliferation, 72 h incubation, median, read-out: Antiproli SUDHL5 [M] (median). The method, boiled down: as §2
The mark [9] stands for this setting: Homo sapiens, SU-DHL-5, 5 h, read-out: Cytotox SUDHL5 [M] (median), SUDHL5 cells, cytotoxicity induction, CellTiter-Glo, 5 h incubation, median.
Where [10] appears, read: Homo sapiens, SU-DHL10, 5 h, read-out: Cytotox SUDHL10 [M] (median), SUDHL10 cells, cytotoxicity induction, CellTiter-Glo, 5 h incubation, median.
The mark [11] stands for this setting: read-out: Cytotox SUDHL5 [M] (median), SUDHL5 cells, cytotoxicity induction, CellTiter-Glo, 5 h incubation, median.
Setting [12] is: read-out: Cytotox SUDHL10 [M] (median), SUDHL10 cells, cytotoxicity induction, CellTiter-Glo, 5 h incubation, median.

Usually EC50 stands for the concentration giving half of the maximal effect. Higher therefore signals a need for much substance.

Chain of MCL-1 (Q07820 whole entry): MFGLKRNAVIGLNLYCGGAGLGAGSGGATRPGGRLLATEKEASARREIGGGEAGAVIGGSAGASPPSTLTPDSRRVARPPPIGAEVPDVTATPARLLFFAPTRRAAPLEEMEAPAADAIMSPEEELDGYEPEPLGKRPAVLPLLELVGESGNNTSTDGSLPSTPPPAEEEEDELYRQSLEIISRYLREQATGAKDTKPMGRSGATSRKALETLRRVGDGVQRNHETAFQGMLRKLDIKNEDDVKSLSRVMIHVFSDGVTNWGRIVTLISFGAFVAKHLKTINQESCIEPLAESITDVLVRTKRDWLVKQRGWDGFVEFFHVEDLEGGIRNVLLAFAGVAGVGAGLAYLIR

On to `Cc1cc(OCCCc2c(C(=O)O)n3c4c(cccc24)-c2c(C)nn(C)c2COCCC3)cc(C)c1Cl` (single isomer, unassigned; enantiomer 1) [Example 014, 1-[3-(4-chloro-3,5-dimethylphenoxy)propyl]-9,11-dimethyl-5,6,8,9-tetrahydro-4H-pyrazolo[4′,3′:8,9][1,5]oxazecino[7,6,5-hi]indole-2-carboxylic acid-N-ethylethanamine Salt (Enantiomer 1)], for which the IC50 in data set [1] was 9.95 nM; in data set [3] (setting [9]), 2.27e-05 M; in data set [4] (Homo sapiens, SU-DHL10, 72 h) it was 7.24e-06 M; in data set [6] (setting [10]), greater than 3.3e-05 M; in data set [7] it was greater than 3.3e-05 M; in data set [8] (Homo sapiens, SU-DHL-5, 72 h), 2.23e-05 M. The EC50 in data set [2] (Homo sapiens, SU-DHL-5, 3 h) was 26.6 µM; in data set [5] (Homo sapiens, SU-DHL10, 3 h), greater than 33 µM.
Regarding `Cc1nn(C)c2c1-c1cccc3c(CCCOc4ccc(F)c5ccccc45)c(C(=O)O)n(c13)CCCCOC2` (single isomer, unassigned; enantiomer 1) [Example 022, 7-{3-[(4-fluoronaphthalen-1-yl)oxy]propyl}-1,3-dimethyl-1,10,11,12,13,15-hexahydropyrazolo[4′,3′:9,10][1,6]oxazacycloundecino[8,7,6-hi]indole-8-carboxylic Acid-N-ethylethanamine Salt (Enantiomer 1)], the IC50 worked out at 1.63 nM in data set [1]; 4.08e-06 M in data set [3] (setting [11]); 6.52e-06 M in data set [4] (Homo sapiens, SU-DHL10, 72 h); 2.02e-05 M in data set [6] (setting [12]); 2.59e-05 M in data set [7] (Homo sapiens, A2780, 72 h); 7.53e-06 M in data set [8] (Homo sapiens, SU-DHL-5, 72 h). Moreover, the EC50 was determined as 4.19 µM in data set [2] (Homo sapiens, SU-DHL-5, 3 h) and 17.6 µM in data set [5].
Take `Cc1ccc2c(CCCOc3cccc4ccccc34)c(C(=O)O)n3c2c1-c1c(C)nn(C)c1COCCC3` (single isomer, unassigned; enantiomer 1) [Example 025, (+)-9,11,12-trimethyl-1-[3-(naphthalen-1-yloxy)propyl]-5,6,8,9-tetrahydro-4H-pyrazolo[4′,3′:8,9][1,5]oxazecino[7,6,5-hi]indole-2-carboxylic acid-N-ethylethanamine Salt (Enantiomer 1)]: the IC50 in data set [1] was 1.84 nM; in data set [3] (setting [11]) it was 2.98e-06 M; in data set [4] (Homo sapiens, SU-DHL10, 72 h), 4.29e-06 M; in data set [6] (setting [12]), 8.77e-06 M; in data set [7], greater than 3.3e-05 M; in data set [7] (Homo sapiens, A2780, 72 h), 3.04e-05 M. Also, the IC50 in data set [8] (Homo sapiens, SU-DHL-5, 72 h) is 6.44e-06 M. Moreover, the 50% effective concentration (EC50) in data set [2] was found to be 3.04 µM; in data set [5] (Homo sapiens, SU-DHL10, 3 h), 11.1 µM.
Regarding `Cc1ccc2c(CCCOc3cccc4ccccc34)c(C(=O)O)n3c2c1-c1c(C)nn(C)c1COCCCC3` (single isomer, unassigned; enantiomer 1) [Example 028, 1,3,4-trimethyl-7-[3-(naphthalen-1-yloxy)propyl]-1,10,11,12,13,15-hexahydropyrazolo[4′,3′:9,10][1,6]oxazacycloundecino[8,7,6-hi]indole-8-carboxylic acid-N-ethylethanamine Salt (Enantiomer 1)], the IC50 in data set [1] is 234 nM; in data set [3] (setting [9]), greater than 3.3e-05 M; in data set [4] (Homo sapiens, SU-DHL10, 72 h), 1.81e-05 M; in data set [6] (setting [10]) it was greater than 3.3e-05 M; in data set [7] (Homo sapiens, A2780, 72 h), 1.94e-05 M; in data set [8] (Homo sapiens, SU-DHL-5, 72 h), 2.97e-05 M. For the same compound, the half-maximal effective concentration (EC50) is greater than 33 µM in data set [2] (Homo sapiens, SU-DHL-5, 3 h) and greater than 33 µM in data set [5] (Homo sapiens, SU-DHL10, 3 h).
With `Cc1cc2c(OCCCc3c(C(=O)O)n4c5c(cccc35)-c3c(C)nn(C)c3COCCCC4)cccc2cc1F` (single isomer, unassigned; enantiomer 1) [Example 050, 7-{3-[(6-fluoro-7-methylnaphthalen-1-yl)oxy]propyl}-1,3-dimethyl-1,10,11,12,13,15-hexahydropyrazolo[4′,3′:9,10][1,6]oxazacycloundecino[8,7,6-hi]indole-8-carboxylic acid-N-ethylethanamine Salt (Enantiomer 1)], the IC50 in data set [1] worked out at 8.82 nM; in data set [3] (setting [11]) it was 4.45e-06 M; in data set [4] (Homo sapiens, SU-DHL10, 72 h) it was 7.75e-06 M; in data set [6] (setting [12]), 9.61e-06 M; in data set [7] (Homo sapiens, A2780, 72 h), 3.01e-05 M; in data set [8] (Homo sapiens, SU-DHL-5, 72 h), 1.41e-05 M. Also, the 50% effective concentration (EC50) stood at 6.3 µM in data set [2] and 18.8 µM in data set [5] (Homo sapiens, SU-DHL10, 3 h).
With `COCc1c2c(nn1C)COCCCCn1c(C(=O)O)c(CCCOc3cccc4ccccc34)c3cccc-2c31` (single isomer, unassigned; enantiomer 1) [Example 100, 3-(methoxymethyl)-2-methyl-7-[3-(naphthalen-1-yloxy)propyl]-2,10,11,12,13,15-hexahydropyrazolo[4′,3′:9,10][1,6]oxazacycloundecino[8,7,6-hi]indole-8-carboxylic acid-N-ethylethanamine Salt (Enantiomer 1)], the IC50 was 42.4 nM in data set [1]; greater than 3.3e-05 M in data set [3] (setting [11]); 1.71e-05 M in data set [4]; greater than 3.3e-05 M in data set [6] (setting [12]); greater than 3.3e-05 M in data set [7] (Homo sapiens, A2780, 72 h); 1.61e-05 M in data set [8]. The 50% effective concentration (EC50) in data set [2] and in data set [5] was greater than 33 µM throughout.
Consider `COCCn1nc(C2CC2)c2c1COCCCCn1c(C(=O)O)c(CCCOc3cccc4ccccc34)c3cccc-2c31` (single isomer, unassigned; enantiomer 1) [Example 103, 3-cyclopropyl-1-(2-methoxyethyl)-7-[3-(naphthalen-1-yloxy)propyl]-1,10,11,12,13,15-hexahydropyrazolo[4′,3′:9,10][1,6]oxazacycloundecino[8,7,6-hi]indole-8-carboxylic acid-N-ethylethanamine Salt (Enantiomer 1)], for which the IC50 is 2.98 nM in data set [1]; 3.55e-06 M in data set [3] (setting [11]); 7.52e-06 M in data set [4] (Homo sapiens, SU-DHL10, 72 h); 8.83e-06 M in data set [6] (setting [12]); 2.72e-05 M in data set [7]; greater than 3.3e-05 M in data set [7] (Homo sapiens, A2780, 72 h). Also, the IC50 in data set [8] was 4.28e-06 M. Moreover, the EC50 is 2.66 µM in data set [2] and 8.71 µM in data set [5].
Take `CCc1c2c(nn1C)CN(C)CCCn1c(C(=O)O)c(CCCOc3cccc4ccccc34)c3cccc-2c31` (single isomer, unassigned; enantiomer 1) [Example 142, 11-Ethyl-7,10-dimethyl-1-[3-(1-naphthyloxy)propyl]-4,5,6,7,8,10-hexahydropyrazolo[3′,4′:7,8][1,5]diazecino[9,10,1-hi]indole-2-carboxylic acid-N-ethylethanamine Salt (Enantiomer 1)]: the IC50 in data set [1] is 5.23 nM; in data set [3] (setting [11]), 6.07e-06 M; in data set [4] (Homo sapiens, SU-DHL10, 72 h), 1.89e-05 M; in data set [6] (setting [12]) it was 1.34e-05 M; in data set [7] (Homo sapiens, A2780, 72 h) it was 2.25e-05 M; in data set [8] (Homo sapiens, SU-DHL-5, 72 h), 8.25e-06 M. Besides, the concentration for a half-maximal effect (EC50) in data set [2] was 4.73 µM; in data set [5], 12.5 µM.
Regarding `Cn1nc(CCN2CCOCC2)c2c1COCCCCn1c(C(=O)O)c(CCCOc3cccc4ccccc34)c3cccc-2c31` (single isomer, unassigned; enantiomer 1) [Example 151, 1-methyl-3-[2-(morpholin-4-yl)ethyl]-7-[3-(naphthalen-1-yloxy)propyl]-1,10,11,12,13,15-hexahydropyrazolo[4′,3′:9,10][1,6]oxazacycloundecino[8,7,6-hi]indole-8-carboxylic acid-N-ethylethanamine Salt (Enantiomer 1)], the IC50 in data set [1] is 13.3 nM; in data set [3] (setting [9]), 1.91e-05 M; in data set [4] (Homo sapiens, SU-DHL10, 72 h), 2.01e-05 M; in data set [6] (setting [10]), greater than 3.3e-05 M; in data set [7] (Homo sapiens, A2780, 72 h), greater than 3.3e-05 M; in data set [8], greater than 3.3e-06 M. Moreover, the EC50 in data set [2] (Homo sapiens, SU-DHL-5, 3 h) is 27.5 µM; in data set [5] (Homo sapiens, SU-DHL10, 3 h), greater than 33 µM.
